Source: DBAASP
Values after ≈ are worked out from the molar mass of the structure shown. Values joined by “and” are separate entries in the source; they are usually repeats but may differ in a detail not shown here. Equal values may be shown once. Blank lines part the entries; values can stand above or below the molecule they belong to.

What was measured:
Test in all cases: ≥ marks a high value that may be exact or a test limit, other limits are often not marked, values filed in µg/mL are converted to µM
[1] = system: Pseudomonas aeruginosa ATCC 9027
[2] = system: Staphylococcus aureus ATCC 43300
[3] = system: Staphylococcus aureus USA 300
[4] = system: Bacillus subtilis ATCC 23857
[5] = system: Staphylococcus aureus ATCC 6538
[6] = system: Staphylococcus epidermidis ATCC 12228
Escherichia coli BL21 = system: Escherichia coli BL21
[7] = system: Staphylococcus aureus ATCC 6538P
[8] = system: Escherichia coli ATCC 700926
[9] = system: Escherichia coli ATCC 25922
[10] = system: Staphylococcus aureus USA 400
[11] = system: Pseudomonas aeruginosa ATCC 27853
[12] = system: Micrococcus luteus ATCC 9341
[13] = system: Escherichia coli IFO 12734
[14] = system: Bacillus subtilis IFO 3513
[15] = system: Staphylococcus aureus IFO 12732
[16] = system: Acinetobacter baumannii NM109
[17] = system: Staphylococcus epidermidis RP62A
[18] = system: Acinetobacter baumannii NM8
[19] = system: Staphylococcus epidermidis RP62A/1
[20] = system: Enterococcus faecalis ATCC 29212
[21] = system: Escherichia coli ATCC 25726
[22] = system: Staphylococcus aureus ATCC 25923
[23] = system: Stenotrophomonas maltophilia B32/1
[24] = system: Staphylococcus epidermidis T37/8
[25] = system: Candida albicans ATCC 90028
[26] = system: Klebsiella pneumoniae ATCC 700603
[27] = system: Stenotrophomonas maltophilia B6/2
[28] = system: Acinetobacter baumannii NM75
[29] = system: Acinetobacter baumannii NM124
[30] = system: Stenotrophomonas maltophilia U8908
[31] = system: Staphylococcus epidermidis T6/19
[32] = system: Staphylococcus aureus 145/08
[33] = system: Stenotrophomonas maltophilia B5/5
[34] = system: Acinetobacter baumannii NM35
[35] = system: Stenotrophomonas maltophilia B32/4
[36] = system: Staphylococcus epidermidis
Vibrio cholerae = system: Vibrio cholerae
[37] = system: Salmonella enterica subsp. enterica serovar Typhi
Candida albicans = system: Candida albicans
Listeria monocytogenes = system: Listeria monocytogenes
[38] = system: Neisseria gonorrhoeae FA-19
Escherichia coli = system: Escherichia coli
[39] = system: Neisseria gonorrhoeae F-62
[40] = system: Pseudomonas aeruginosa 8600
[41] = system: Lactobacillus acidophilus NCTC 1723
[42] = system: Streptococcus mutans NCTC 10449
[43] = system: Enterococcus faecalis NCTC 12697
[44] = system: Acinetobacter baumannii ATCC 19606
[45] = system: Candida albicans NCTC 3179

Compound: CC[C@H](C)[C@H](NC(=O)[C@H](CCCCN)NC(=O)[C@H](CCCCN)NC(=O)[C@@H](NC(=O)[C@@H](NC(=O)[C@H](CCCCN)NC(=O)[C@H](CCCCN)NC(=O)[C@@H](NC(=O)[C@@H](NC(=O)[C@H](CCCCN)NC(=O)[C@H](CCCCN)NC(=O)[C@@H](NC(=O)[C@@H](NC(=O)CN)[C@@H](C)CC)[C@@H](C)CC)[C@@H](C)CC)[C@@H](C)CC)[C@@H](C)CC)[C@@H](C)CC)C(=O)O [GIIKKIIKKIIKKI]
- MIC [1]: 9.3 µM (≈ 15.2 µg/mL)
- MIC [2]: 125 µM (≈ 205 µg/mL)
- MIC [3]: ≥ 125 µM
- MIC [4]: 2.4 µM (≈ 3.93 µg/mL)
- MIC [5]: 128 µM and 62.5 µM
- MIC [6]: 3.9 µM (≈ 6.38 µg/mL)
- MIC (Escherichia coli BL21): 15.6 µM (≈ 25.5 µg/mL)
- MIC [7]: 7.8 µM (≈ 12.8 µg/mL)
- MIC [8]: 15.6 µM (≈ 25.5 µg/mL)
- MIC [9]: 5.7 µM (≈ 9.33 µg/mL)
- MIC [10]: ≥ 125 µM
- MIC [11]: 15.6 µM (≈ 25.5 µg/mL)

Compound: CC[C@H](C)[C@H](N)C(=O)N[C@@H](CC(C)C)C(=O)N1CCC[C@H]1C(=O)N[C@@H](Cc1ccc(O)cc1)C(=O)N[C@@H](CCCCN)C(=O)N[C@@H](Cc1ccc(O)cc1)C(=O)N1CCC[C@H]1C(=O)N[C@@H](Cc1ccc(O)cc1)C(=O)N[C@@H](Cc1ccc(O)cc1)C(=O)N1CCC[C@H]1C(=O)N[C@@H](Cc1ccc(O)cc1)C(=O)N[C@@H](CCCN=C(N)N)C(=O)N[C@@H](CCCN=C(N)N)C(N)=O [ILPYKYPYYPYRR]
- MIC [12]: 6.3 µM (≈ 11.3 µg/mL)
- MIC [13]: ≥ 55.8 µM
- MIC [14]: 14 µM (≈ 25 µg/mL)
- MIC [15]: 14 µM (≈ 25 µg/mL)

Compound: CC[C@H](C)[C@H](NC(=O)[C@H](C)NC(=O)[C@@H](NC(=O)[C@H](C)NC(=O)CNC(=O)[C@H](CCCCN)NC(=O)[C@@H](NC(=O)[C@H](C)NC(=O)CNC(=O)[C@H](CCCCN)NC(=O)[C@H](CC(C)C)NC(=O)[C@@H](NC(=O)[C@H](CCCCN)NC(=O)[C@H](CCCCN)NC(=O)[C@H](CC(C)C)NC(=O)[C@@H](NC(=O)[C@H](CC(=O)O)NC(=O)[C@H](CCCCN)NC(=O)[C@@H](NC(=O)[C@H](CCCCN)NC(=O)[C@@H]1CCCN1C(=O)[C@H](CO)NC(=O)[C@H](CC(C)C)NC(=O)[C@H](CCCCN)NC(=O)[C@@H](N)CC(C)C)[C@@H](C)O)[C@@H](C)O)C(C)C)[C@@H](C)CC)[C@@H](C)CC)C(=O)N[C@@H](C)C(=O)N[C@@H](CO)C(=O)N[C@@H](CCSC)C(=O)N[C@@H](C)C(N)=O [LKLSPKTKDTLKKVLKGAIKGAIAIASMA]
- MIC [16]: 5 µM (≈ 15 µg/mL)
- MIC [17]: 1.25 µM (≈ 3.74 µg/mL)
- MIC [18]: 5 µM (≈ 15 µg/mL)
- MIC [19]: 1.25 µM (≈ 3.74 µg/mL)
- MIC [20]: 20 µM (≈ 59.9 µg/mL)
- MIC [21]: 10 µM and 5 µM
- MIC [22]: 2.5 µM (≈ 7.49 µg/mL)
- MIC [23]: 2.5 µM (≈ 7.49 µg/mL)
- MIC [24]: 1.25 µM (≈ 3.74 µg/mL)
- MIC [25]: ≥ 80 µM
- MIC [26]: 10 µM (≈ 29.9 µg/mL)
- MIC [27]: 1.25 µM (≈ 3.74 µg/mL)
- MIC [28]: 2.5 µM (≈ 7.49 µg/mL)
- MIC [29]: 2.5 µM (≈ 7.49 µg/mL)
- MIC [30]: 5 µM (≈ 15 µg/mL)
- MIC [31]: 1.25 µM (≈ 3.74 µg/mL)
- MIC [32]: 2.5 µM (≈ 7.49 µg/mL)
- MIC [33]: 2.5 µM (≈ 7.49 µg/mL)
- MIC [34]: 5 µM (≈ 15 µg/mL)
- MIC [11]: 20 µM (≈ 59.9 µg/mL)
- MIC [35]: 1.25 µM (≈ 3.74 µg/mL)

The next lines start with results.

- MIC [36]: 0.687 µM (≈ 0.66 µg/mL)
- MIC [37]: 0.687 µM (≈ 0.66 µg/mL)
Compound: CC(C)C[C@H](NC(=O)[C@H](CO)NC(=O)CNC(=O)[C@H](C)NC(=O)[C@@H](N)CC(N)=O)C(=O)N[C@@H](CC(C)C)C(=O)N[C@@H](CO)C(=O)NCC(=O)N[C@@H](Cc1c[nH]c2ccccc12)C(=O)NCC(=O)O [NAGSLLSGWG]
- MIC (Vibrio cholerae): 3 µM (≈ 2.88 µg/mL)

- MIC (Candida albicans): 7.42 µM (≈ 15.6 µg/mL)
- MIC (Listeria monocytogenes): 1.19 µM (≈ 2.49 µg/mL)
- MIC [38]: 0.761 µM (≈ 1.6 µg/mL)
- MIC (Escherichia coli): 1.38 µM (≈ 2.89 µg/mL)
- MIC [39]: 0.666 µM (≈ 1.4 µg/mL)
Compound: CC(C)C[C@H](NC(=O)[C@H](CCCNC(=N)N)NC(=O)CNC(=O)CNC(=O)[C@@H](N)CCCNC(=N)N)C(=O)N[C@H]1CSSC[C@@H](C(=O)N[C@H](C(=O)NCC(=O)N[C@@H](CCCNC(=N)N)C(N)=O)C(C)C)NC(=O)[C@H](C(C)C)NC(=O)[C@@H]2CSSC[C@H](NC(=O)[C@H](Cc3ccc(O)cc3)NC1=O)C(=O)N[C@@H](CCCNC(=N)N)C(=O)N1CCC[C@H]1C(=O)N[C@@H](CCCNC(=N)N)C(=O)N[C@@H](Cc1ccccc1)C(=O)N2 [RGGRLCYCRPRFCVCVGR]

- MIC [40]: ≥ 94.9 µM
- MIC [41]: ≥ 54.9 µM
- MIC [42]: ≥ 127 µM
- MIC [43]: ≥ 371 µM
- MIC [44]: > 94.9 µM
- MIC [45]: 6.01 µM (≈ 8.09 µg/mL)
Compound: CSCC[C@H](NC(=O)[C@H](CC(C)C)NC(=O)CNC(=O)[C@H](Cc1ccccc1)NC(=O)[C@H](Cc1ccccc1)NC(=O)[C@H](CCC(N)=O)NC(=O)[C@H](CCC(N)=O)NC(=O)[C@@H]1CCCN1C(=O)[C@H](CCCCN)NC(=O)[C@@H]1CCCN1C(=O)[C@@H](N)CCCN=C(N)N)C(N)=O [RPKPQQFFGLM]
